For 8 compounds, IC50 results are on record in ChEMBL document CHEMBL3351718 (Bioorg Med Chem Lett, 2014).

A value given as a limit tells only on which side of the number the result lay.

In test [1] the target is Hepatocyte growth factor receptor (Homo sapiens, UniProt P08581). Kind of test: Inhibition of recombinant MET kinase domain (unknown origin).
The target of test [2] is Vascular endothelial growth factor receptor 2 (Homo sapiens, UniProt P35968). Kind of test: Inhibition of recombinant VEGFR2 kinase domain (unknown origin).
Vascular endothelial growth factor receptor 2, sequence (P35968 whole entry, the tested form may be a part): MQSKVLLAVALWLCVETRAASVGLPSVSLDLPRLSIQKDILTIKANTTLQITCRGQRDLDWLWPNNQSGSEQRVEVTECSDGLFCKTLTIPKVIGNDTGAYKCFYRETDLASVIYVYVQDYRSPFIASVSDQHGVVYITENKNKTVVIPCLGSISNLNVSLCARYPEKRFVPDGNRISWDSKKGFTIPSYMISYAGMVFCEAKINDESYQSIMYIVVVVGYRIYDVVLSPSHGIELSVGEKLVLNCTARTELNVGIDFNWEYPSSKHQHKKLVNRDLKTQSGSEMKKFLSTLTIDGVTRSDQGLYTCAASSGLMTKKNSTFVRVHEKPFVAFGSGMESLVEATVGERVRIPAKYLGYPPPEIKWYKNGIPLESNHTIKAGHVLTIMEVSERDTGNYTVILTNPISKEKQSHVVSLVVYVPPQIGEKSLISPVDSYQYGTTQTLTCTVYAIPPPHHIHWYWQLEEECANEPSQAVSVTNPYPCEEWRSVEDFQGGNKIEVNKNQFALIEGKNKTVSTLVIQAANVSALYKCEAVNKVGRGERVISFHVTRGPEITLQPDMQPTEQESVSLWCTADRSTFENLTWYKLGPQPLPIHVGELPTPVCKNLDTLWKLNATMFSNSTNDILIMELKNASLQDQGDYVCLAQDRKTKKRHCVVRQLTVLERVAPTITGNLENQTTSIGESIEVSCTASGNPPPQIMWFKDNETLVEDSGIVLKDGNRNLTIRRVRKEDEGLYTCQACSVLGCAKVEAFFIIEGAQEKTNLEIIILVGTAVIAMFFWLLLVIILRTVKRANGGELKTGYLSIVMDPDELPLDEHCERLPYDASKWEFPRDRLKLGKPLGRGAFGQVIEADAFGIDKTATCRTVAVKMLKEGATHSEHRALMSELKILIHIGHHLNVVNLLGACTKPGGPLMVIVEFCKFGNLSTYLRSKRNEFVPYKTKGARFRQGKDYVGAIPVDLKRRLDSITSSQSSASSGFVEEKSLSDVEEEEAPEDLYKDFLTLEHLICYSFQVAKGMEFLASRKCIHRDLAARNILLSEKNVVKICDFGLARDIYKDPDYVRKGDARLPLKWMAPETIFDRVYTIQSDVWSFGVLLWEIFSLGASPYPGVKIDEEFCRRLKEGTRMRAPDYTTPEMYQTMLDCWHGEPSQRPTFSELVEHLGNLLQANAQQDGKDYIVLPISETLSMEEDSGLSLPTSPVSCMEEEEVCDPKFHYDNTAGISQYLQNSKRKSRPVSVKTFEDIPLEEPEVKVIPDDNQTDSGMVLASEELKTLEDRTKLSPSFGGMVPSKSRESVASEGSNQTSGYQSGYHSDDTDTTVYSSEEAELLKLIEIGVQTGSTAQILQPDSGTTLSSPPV
In test [3] the target is Mast/stem cell growth factor receptor Kit (Homo sapiens, UniProt P10721). Kind of test: Inhibition of c-Kit (unknown origin).
Mast/stem cell growth factor receptor Kit, sequence (P10721 whole entry): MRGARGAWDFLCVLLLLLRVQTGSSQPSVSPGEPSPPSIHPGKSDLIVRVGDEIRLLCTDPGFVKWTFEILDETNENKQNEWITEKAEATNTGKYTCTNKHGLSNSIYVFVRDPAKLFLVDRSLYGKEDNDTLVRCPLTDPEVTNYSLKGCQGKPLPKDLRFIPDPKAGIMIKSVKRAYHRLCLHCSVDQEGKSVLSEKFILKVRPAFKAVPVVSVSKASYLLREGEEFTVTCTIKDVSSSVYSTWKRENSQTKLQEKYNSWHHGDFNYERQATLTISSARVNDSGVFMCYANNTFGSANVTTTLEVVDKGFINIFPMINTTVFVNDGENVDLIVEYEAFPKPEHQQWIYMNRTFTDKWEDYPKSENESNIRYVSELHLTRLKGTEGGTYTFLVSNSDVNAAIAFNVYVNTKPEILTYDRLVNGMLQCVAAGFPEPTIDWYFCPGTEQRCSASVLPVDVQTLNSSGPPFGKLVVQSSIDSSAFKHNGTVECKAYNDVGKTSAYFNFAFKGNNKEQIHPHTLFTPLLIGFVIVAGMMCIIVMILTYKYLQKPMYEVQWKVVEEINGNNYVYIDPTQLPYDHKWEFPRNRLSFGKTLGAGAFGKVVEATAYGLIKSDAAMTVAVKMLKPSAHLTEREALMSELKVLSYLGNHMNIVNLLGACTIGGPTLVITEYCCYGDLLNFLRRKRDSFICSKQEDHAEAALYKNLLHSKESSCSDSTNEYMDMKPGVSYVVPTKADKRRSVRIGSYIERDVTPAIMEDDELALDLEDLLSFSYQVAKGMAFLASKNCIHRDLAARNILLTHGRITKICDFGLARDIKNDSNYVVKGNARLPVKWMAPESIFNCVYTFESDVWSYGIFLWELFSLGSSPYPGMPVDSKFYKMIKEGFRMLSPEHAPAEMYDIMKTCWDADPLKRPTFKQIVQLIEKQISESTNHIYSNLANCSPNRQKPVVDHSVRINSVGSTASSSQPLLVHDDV
In test [4] the target is Proto-oncogene tyrosine-protein kinase receptor Ret (Homo sapiens, UniProt P07949). Kind of test: Inhibition of RET (unknown origin).
Proto-oncogene tyrosine-protein kinase receptor Ret, sequence (P07949 whole entry): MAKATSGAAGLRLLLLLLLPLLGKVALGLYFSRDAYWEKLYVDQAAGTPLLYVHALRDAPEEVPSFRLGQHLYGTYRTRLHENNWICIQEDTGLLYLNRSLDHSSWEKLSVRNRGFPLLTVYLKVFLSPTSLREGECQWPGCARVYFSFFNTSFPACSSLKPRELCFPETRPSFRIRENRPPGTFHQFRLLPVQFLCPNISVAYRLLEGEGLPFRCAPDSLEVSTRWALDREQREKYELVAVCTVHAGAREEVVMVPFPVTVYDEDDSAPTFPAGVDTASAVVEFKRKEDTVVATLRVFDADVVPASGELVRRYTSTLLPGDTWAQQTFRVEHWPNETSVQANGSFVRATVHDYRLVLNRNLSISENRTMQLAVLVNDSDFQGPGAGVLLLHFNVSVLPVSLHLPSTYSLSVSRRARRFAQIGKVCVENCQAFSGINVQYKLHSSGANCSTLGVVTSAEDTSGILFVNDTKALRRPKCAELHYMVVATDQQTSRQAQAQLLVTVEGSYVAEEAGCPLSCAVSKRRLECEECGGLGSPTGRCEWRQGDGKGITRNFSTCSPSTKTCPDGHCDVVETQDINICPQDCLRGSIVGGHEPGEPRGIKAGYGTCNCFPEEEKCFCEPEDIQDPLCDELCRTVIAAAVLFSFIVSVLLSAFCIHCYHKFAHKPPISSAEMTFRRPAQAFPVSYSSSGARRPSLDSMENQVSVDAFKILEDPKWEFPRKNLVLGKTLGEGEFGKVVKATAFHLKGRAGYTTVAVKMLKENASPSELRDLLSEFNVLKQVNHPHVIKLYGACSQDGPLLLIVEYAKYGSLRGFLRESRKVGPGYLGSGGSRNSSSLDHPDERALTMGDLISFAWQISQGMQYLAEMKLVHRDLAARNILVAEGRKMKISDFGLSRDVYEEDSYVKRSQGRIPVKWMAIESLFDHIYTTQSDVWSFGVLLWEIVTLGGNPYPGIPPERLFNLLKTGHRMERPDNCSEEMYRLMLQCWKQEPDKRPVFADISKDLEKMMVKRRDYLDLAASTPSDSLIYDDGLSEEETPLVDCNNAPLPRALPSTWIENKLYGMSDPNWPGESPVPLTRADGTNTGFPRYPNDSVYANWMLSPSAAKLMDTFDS
A further test concerns HUVEC. Kind of test: Growth inhibition of HUVEC cells. Conditions: Homo sapiens.
Test [5] can be described thus: Growth inhibition of human MKN45 cells. The settings on record: MKN-45.

Hepatocyte growth factor receptor, sequence (P08581 whole entry, the tested form may be a part): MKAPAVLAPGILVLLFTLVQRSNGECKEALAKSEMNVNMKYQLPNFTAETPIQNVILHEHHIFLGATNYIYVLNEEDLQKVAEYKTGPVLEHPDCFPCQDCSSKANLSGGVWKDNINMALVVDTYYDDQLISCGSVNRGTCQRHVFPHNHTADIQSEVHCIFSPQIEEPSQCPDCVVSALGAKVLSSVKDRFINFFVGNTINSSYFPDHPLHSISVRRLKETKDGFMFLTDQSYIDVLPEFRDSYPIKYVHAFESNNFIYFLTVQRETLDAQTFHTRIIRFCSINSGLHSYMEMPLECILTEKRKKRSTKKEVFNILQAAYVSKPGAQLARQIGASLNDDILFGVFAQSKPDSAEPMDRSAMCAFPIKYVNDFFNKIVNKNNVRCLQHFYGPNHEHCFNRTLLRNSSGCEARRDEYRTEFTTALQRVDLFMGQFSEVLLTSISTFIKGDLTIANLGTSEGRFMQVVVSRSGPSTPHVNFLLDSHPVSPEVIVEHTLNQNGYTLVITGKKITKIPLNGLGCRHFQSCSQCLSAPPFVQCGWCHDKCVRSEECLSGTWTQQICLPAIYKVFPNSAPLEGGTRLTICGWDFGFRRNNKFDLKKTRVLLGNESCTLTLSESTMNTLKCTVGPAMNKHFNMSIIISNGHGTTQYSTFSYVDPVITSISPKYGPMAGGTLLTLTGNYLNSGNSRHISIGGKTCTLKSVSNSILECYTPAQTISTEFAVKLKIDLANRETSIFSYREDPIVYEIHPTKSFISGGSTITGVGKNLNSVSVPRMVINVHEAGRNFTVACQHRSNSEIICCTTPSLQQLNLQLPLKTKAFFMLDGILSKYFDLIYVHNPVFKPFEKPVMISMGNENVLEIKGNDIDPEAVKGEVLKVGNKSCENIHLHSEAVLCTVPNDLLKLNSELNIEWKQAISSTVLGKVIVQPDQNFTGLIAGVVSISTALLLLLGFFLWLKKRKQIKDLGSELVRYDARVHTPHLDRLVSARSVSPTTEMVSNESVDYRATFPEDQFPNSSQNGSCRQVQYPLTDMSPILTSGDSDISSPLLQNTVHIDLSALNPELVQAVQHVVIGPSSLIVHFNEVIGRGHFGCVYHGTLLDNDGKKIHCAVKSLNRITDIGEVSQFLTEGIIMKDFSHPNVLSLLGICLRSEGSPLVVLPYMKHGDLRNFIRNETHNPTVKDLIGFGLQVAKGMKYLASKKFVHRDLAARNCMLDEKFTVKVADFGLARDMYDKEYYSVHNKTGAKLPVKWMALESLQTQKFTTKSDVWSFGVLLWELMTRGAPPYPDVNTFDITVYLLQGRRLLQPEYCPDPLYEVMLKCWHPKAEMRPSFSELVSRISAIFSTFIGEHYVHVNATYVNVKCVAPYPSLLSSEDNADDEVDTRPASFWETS

What is called IC50 is the point on the concentration scale where inhibition reaches its midpoint. For `Nc1nccc(Oc2ccc(-n3cccc(C(=O)Nc4ccc(F)cc4)c3=O)cc2F)c1Cl`, in test [1], the IC50 was > 25 µM.
In the case of `Nc1nccc(Oc2ccc(-n3cc(C(=O)Nc4ccc(F)cc4)ccc3=O)cc2F)c1Cl`, the IC50 in test [1] is > 25 µM.
Consider `Nc1nccc(Oc2ccc(-n3ccc(C(=O)Nc4ccc(F)cc4)cc3=O)cc2F)c1Cl`, for which, in test [1], the half-inhibitory concentration (IC50) was > 25 µM.
`COc1cc(=O)n(-c2ccc(Oc3ccnc(N)c3I)c(F)c2)cc1C(=O)NCc1ccc(F)cc1`: the IC50 was > 25 µM in test [2]; > 25 µM in test [3]; > 25 µM in test [4]; 2.41 µM in the test on HUVEC; > 25 µM in test [5].
Take `Nc1nccc(Oc2ccc(-n3cc(C(=O)NCc4ccc(F)cc4)ccc3=O)cc2F)c1Cl`: the IC50 in test [2] was > 25 µM.
On to `Nc1nccc(Oc2ccc(-n3ccc(C(=O)NCc4ccc(F)cc4)cc3=O)cc2F)c1Cl`, for which the IC50 in test [1] was > 25 µM.
With `COc1cc(=O)n(-c2ccc(Oc3ccnc(N)c3Cl)c(F)c2)cc1C(=O)NCc1ccc(F)cc1`, the IC50 is > 25 µM in test [2]; > 25 µM in test [3]; > 25 µM in test [4]; 2.41 µM with HUVEC; > 25 µM in test [5].
As to `Nc1nccc(Oc2ccc(-n3cccc(C(=O)NCc4ccc(F)cc4)c3=O)cc2F)c1Cl`, the IC50 in test [1] was > 25 µM.
